The nature of data set [1]: Stability at ordinary temperature, under cooking conditions and in solution. Format: physicochemical. The following applies: for stability under cooking conditions: cooking conditions of 180° C. or lower. An excerpt: The agent, pharmaceutical composition, or nutritional composition of the present invention can be produced by using various known techniques. The step of adjusting concentration of the active ingredient to a predetermined concentration may be performed in various stages of the manufacturing process. Those skilled in the art can appropriately design the steps for producing the agent of the present invention in consideration of solubility, stability, volatility, etc. of the active ingredient. […] It was also confirmed that they can be stably stored over at least 2 years and 9 months in a state of solution.

The conditions of data set [2]: cited from earlier work.
The subject of data set [3] is transgenic mice (Alzheimer disease model mice). Put plainly: Blood cytokines in high fat diet Alzheimer disease model mice. Conditions: carnosine-containing diet group. Format: in vivo, mouse. The protocol:
(§1) High fat diet (HFD) was given to transgenic mice (Alzheimer disease model mice) to induce cerebral hypofunction. Carnosine (L-histidine-β-alanine) was administered to the mice, and influence of carnosine was evaluated.
(§2) Suppression of cerebral inflammation in the carnosine administration group was also shown by the results of MRI test (FIG. 8-2, red portions). The results of the microarray analysis indicated increase of expressions of GABA transporters such as 7Slc6a12 and slc6a13 observed in the Alzheimer model was suppressed in the carnosine administration group (FIG. 8-3).

Data set [4] deals with GABA transporters. The data set is described as follows: Microarray analysis of GABA transporter genes in Alzheimer disease model mice. Format: in vivo, mouse. The following applies: carnosine administration group vs Alzheimer model. On the procedure:
as §1, §2

Data set [5] concerns transgenic mice (Alzheimer disease model mice). Put plainly: Blood insulin concentration in Alzheimer disease model mice. Format: in vivo, mouse. Conditions: mice starved overnight; high fat diet-induced Alzheimer disease; p<0.05. On the procedure: as §1
Blood was collected from mice starved overnight, and blood insulin concentration was determined with a kit (Morinaga).

The test system is the same in data set [6]. The data set is described as follows: Intracerebral inflammatory reaction by MRI in Alzheimer disease model mice. The data set is classed as in vivo, mouse. Conditions: carnosine administration group, high fat diet transgenic mice. On the procedure: as §1, §2

Take `Cn1cncc1C[C@H](NC(=O)CCN)C(=O)O` [anserine, (2S)-2-[(3-amino-1-oxopropyl)amino]-3-(3-methyl-4-imidazolyl)ppropanoic acid]: in data set [1], the “stability under cooking conditions” value is listed as “sufficiently stable” and the “stability at an ordinary temperature” value was “sufficiently stable”. In addition, the “water solubility (in words)” value in data set [2] was “water-soluble”.
In the case of `NCCC(=O)N[C@@H](Cc1cnc[nH]1)C(=O)O` [carnosine], the blood cytokines result in data set [3] is listed as “decreased”. Also, in data set [4], the “increase of expression of GABA transporter 7Slc6a12” value was “suppressed” and the “increase of expression of GABA transporter slc6a13” value is on record as “suppressed”. Also, the “increase of the blood insulin concentration” value in data set [5] is “suppressed”. Also, in data set [1], the “stability under cooking conditions” value was “sufficiently stable” and the “stability at an ordinary temperature” value is given as “sufficiently stable”. For the same compound, the water solubility in data set [2] (at 25° C.) is reported as 1 g/3.1 ml. Also, the “water solubility (in words)” value in data set [2] was “water-soluble”. Moreover, the “cerebral inflammation (MRI test)” value in data set [6] is “Suppression”.

The values above are taken from US20180140655A1, “AGENT CONTAINING IMIDAZOLE DIPEPTIDE” (THE UNIVERSITY OF TOKYO, priority 2014, published 2018).
